In ChEMBL document CHEMBL1126056, “Asymmetric synthesis of 1,3-dioxolane-pyrimidine nucleosides and their anti-HIV activity” (J Med Chem, 1992):

Columns and labels:
[1] = Effective concentration against HIV-1 in peripheral blood mononuclear cells (PBM).; format: functional, Homo sapiens
Vero = assay: Cytotoxicity in vero cells.; format: functional, cell-based; conditions: Chlorocebus sabaeus
[2] = Cytotoxicity in peripheral blood mononuclear cells (PBM).; format: functional, cell-based; conditions: Homo sapiens
[3] = Effective concentration against HIV-1 in peripheral blood mononuclear cells(PBM).; format: functional, Homo sapiens
[4] = Cytotoxicity in peripheral blood mononuclear cells(PBM).; format: functional, cell-based; conditions: Homo sapiens
[5] = Cytotoxicity in peripheral blood mononuclear; format: functional, Homo sapiens
[6] = The compound was tested for antiviral activity against AZT resistant strain 9F HIV in PBM cells.; format: functional, cell-based; conditions: Homo sapiens, PBMC
[7] = The compound was tested for antiviral activity against AZT sensitive 10 HIV in PBM cells.; format: functional; conditions: Homo sapiens, PBMC
[8] = The compound was tested for antiviral activity against AZT sensitive strain 9F HIV in PBM cells.; format: functional, cell-based; conditions: Homo sapiens, PBMC
[9] = The compound was tested for antiviral activity against AZT resistant strain 10 HIV in PBM cells.; format: functional; conditions: Homo sapiens, PBMC

EC50 [1] [µM] | SMILES | IC50 (Vero) [µM] | IC50 [2] [µM] | further results
> 100 | O=c1ccn([C@H]2CO[C@@H](CO)O2)c(=O)[nH]1 | > 100 | > 100 | 
2.4 | Nc1ccn([C@@H]2CO[C@@H](CO)O2)c(=O)n1 | > 100 | > 100 | 
0.16 | Nc1ccn([C@H]2CO[C@@H](CO)O2)c(=O)n1 | 8.3 | 62 | 
 | O=c1[nH]c(=O)n([C@H]2CO[C@@H](CO)O2)cc1Br | > 100 |  | EC50 [3]: 9.3 µM; IC50 [4]: > 100 µM
 | O=c1[nH]c(=O)n([C@@H]2CO[C@@H](CO)O2)cc1Br | > 100 |  | EC50 [3]: > 100 µM; IC50 [4]: > 100 µM
6.8 | O=c1[nH]c(=O)n([C@H]2CO[C@@H](CO)O2)cc1Cl | > 100 |  | IC50 [5]: > 100 µM
> 100 | O=c1[nH]c(=O)n([C@@H]2CO[C@@H](CO)O2)cc1F | > 100 | > 100 | 
69.6 | O=c1[nH]c(=O)n([C@H]2CO[C@@H](CO)O2)cc1F | > 100 | > 100 | 
> 100 | O=c1ccn([C@@H]2CO[C@@H](CO)O2)c(=O)[nH]1 | > 100 | > 100 | 
> 100 | O=c1[nH]c(=O)n([C@H]2CO[C@@H](CO)O2)cc1I | > 100 | > 100 | 
> 100 | O=c1[nH]c(=O)n([C@@H]2CO[C@@H](CO)O2)cc1I | > 100 | > 100 | 
> 100 | O=c1[nH]c(=O)n([C@@H]2CO[C@@H](CO)O2)cc1Cl | > 100 | > 100 | 
 | Cc1cn([C@H]2C[C@H](N=[N+]=[N-])[C@@H](CO)O2)c(=O)[nH]c1=O [ZIDOVUDINE] | 28 | > 100 | EC50 [3]: 0.009 µM; EC50 [6]: 1.2 µM; EC90 [7]: 0.0065 µM; EC50 [8]: 0.0012 µM; EC90 [9]: 19 µM
